The results in this text go back to patent publication US20060052415A1, “N-{2-chloro-4-[(6,7-dimethoxy-4-quinolyl)oxy]phenyl}-n'-(5-methyl-3-isoxazolyl)urea salt in crystalline form” (KIRIN BEER KABUSHIKI KAISHA, priority 2002, published 2006).

Entries after “also recorded” stand apart in the source; their conditions may differ.

What all share (format): physicochemical
Data set [1] can be described thus: Hygroscopicity of crystal (weight change on storage). As to conditions: 40° C. and 75% RH; for hygroscopicity (level, in words): 2 weeks, based on weight change. The method, then: Hygroscopicity of Crystal
Form I to III crystals of hydrochloride, form I crystal of nitrate, form I and II crystals of sulfate, form I crystal of methanesulfonate, form I and II crystals of p-toluenesulfonate, and form I and II crystals of maleate of N-{2-chloro-4-[(6,7-dimethoxy-4-quinolyl)oxy]phenyl}-N′-(5-methyl-3-isoxazolyl)urea were stored under conditions of 40° C. and 75% RH for 2 weeks. Before and after the storage, the weight of each crystal was measured to determine a difference in weight between before the storage and after the storage.
For each crystal, the hygroscopicity was evaluated based on the weight change.

The nature of data set [2]: Stability of crystal under high humidity (40° C., 75% RH) conditions. As to conditions: stored at 40° C. and 75% RH for 2 weeks. As for the experimental part: (§1) X-ray diffraction patterns of crystals were taken using Cu-Kα radiation (40 kV, 40 mA, λ=1.541 angstroms) with a powder X-ray diffraction apparatus (X-ray diffraction RINT DMAX-2000, manufactured by Rigaku Industrial Corporation) (scanning speed: 5 degrees/min, scanning range: 5.000 to 40.000 degrees, filter: Kβ filter). Based on powder X-ray diffraction patterns thus obtained, peak positions and relative intensity (%) were determined for peaks with a relative intensity of not less than 20%.
Stability of Crystal Under High Humidity (40° C., 75% RH) Conditions
Form I to III crystals of hydrochloride, form I crystal of nitrate, form I and II crystals of sulfate, form I crystal of methanesulfonate, form I and II crystals of p-toluenesulfonate, and form I and II crystals of maleate of N-{2-chloro-4-[(6,7-dimethoxy-4-quinolyl)oxy]phenyl}-N′-(5-methyl-3-isoxazolyl)urea were stored under conditions of 40° C. and 75% RH for 2 weeks. […]

Data set [3] is described as follows: Stability of crystal under heating (73° C.) conditions. As to conditions: stored at 73° C. for 2 weeks. As for the experimental part: as §1
Stability of Crystal Under Heating (73° C.) Conditions
Form I to III crystals of hydrochloride, form I crystal of nitrate, form I and II crystals of sulfate, form I crystal of methanesulfonate, form I and II crystals of p-toluenesulfonate, and form I and II crystals of maleate of N-{2-chloro-4-[(6,7-dimethoxy-4-quinolyl)oxy]phenyl}-N′-(5-methyl-3-isoxazolyl)urea were stored at 73° C. for 2 weeks. […]

Data set [4] can be described thus: Stability of crystal against physical stress (grinding in a mortar). As to conditions: ground in an agate or porcelain mortar. As for the experimental part:
as §1
Stability of Crystal Against Physical Stress
Each of form I to III crystals of hydrochloride, form I crystal of nitrate, form I and II crystals of sulfate, form I crystal of methanesulfonate, form I and II crystals of p-toluenesulfonate, and form I and II crystals of maleate of N-{2-chloro-4-[(6,7-dimethoxy-4-quinolyl)oxy]phenyl}-N′-(5-methyl-3-isoxazolyl)urea was ground in a mortar. In grinding each crystal in the mortar, about 1 mg of each crystal sample was placed and ground in an agate mortar or a porcelain mortar. For each sample before and after grinding, a powder X-ray diffraction chart was measured by method 1 to evaluate the stability of the crystal against physical stress.

[5] abbreviates: listed as form III crystal of hydrochloride, hydrochloride.
The mark [6] stands for this setting: listed as form II crystal of hydrochloride, hydrochloride.

In the case of `COc1cc2nccc(Oc3ccc(NC(=O)Nc4cc(C)on4)c(Cl)c3)c2cc1OC.Cl` [Form III crystal of hydrochloride, N-{2-chloro-4-[(6,7-dimethoxy-4-quinolyl)oxy]phenyl}-N′-(5-methyl-3-isoxazolyl)urea hydrochloride], in data set [1] (hydrochloride), the “hygroscopicity (level, in words)” value was “highly hygroscopic”; the “weight change (hygroscopicity) After 1 week” value came to 1.49%; the “weight change (hygroscopicity) After 2 weeks” value stood at 1.93%; the “weight change (hygroscopicity) After 2 days” value turned out to be 1.06%. Further, the “stability of crystal under high humidity conditions (change of powder X-ray diffraction chart)” value in data set [2] (setting [5]) was “converted to form I crystal”. The “stability of crystal under high temperature conditions (change of powder X-ray diffraction chart)” value in data set [3] (setting [5]) is listed as “converted to form II crystal”. For the same compound, in data set [4] (setting [5]), the “stability of crystal against physical stress (powder X-ray diffraction before and after grinding)” value is recorded as “lowering in peak intensity”.

For `COc1cc2nccc(Oc3ccc(NC(=O)Nc4cc(C)on4)c(Cl)c3)c2cc1OC.Cl` [Form II crystal of hydrochloride, N-{2-chloro-4-[(6,7-dimethoxy-4-quinolyl)oxy]phenyl}-N′-(5-methyl-3-isoxazolyl)urea hydrochloride], in data set [1] (hydrochloride), the “hygroscopicity (level, in words)” value is listed as “low level of hygroscopicity; also recorded: on a low level”; the “weight change (hygroscopicity) After 1 week” value was found to be 0.29%; the “weight change (hygroscopicity) After 2 weeks” value worked out at 0.20%; the “weight change (hygroscopicity) After 2 days” value came to 0.30%. For the same compound, in data set [2] (setting [6]), the “stability of crystal under high humidity conditions (change of powder X-ray diffraction chart)” value was “excellent stability”. Moreover, the “stability of crystal under high temperature conditions (change of powder X-ray diffraction chart)” value in data set [3] (setting [6]) is “excellent stability”. Also, the “stability of crystal against physical stress (powder X-ray diffraction before and after grinding)” value in data set [4] (setting [6]) is on record as “excellent stability”.

For `COc1cc2nccc(Oc3ccc(NC(=O)Nc4cc(C)on4)c(Cl)c3)c2cc1OC.CS(=O)(=O)O` [Form I crystal of methanesulfonate, N-{2-chloro-4-[(6,7-dimethoxy-4-quinolyl)oxy]phenyl}-N′-(5-methyl-3-isoxazolyl)urea methanesulfonate], in data set [1], the “hygroscopicity (level, in words)” value was “highly hygroscopic”; the “weight change (hygroscopicity) After 1 week” value stood at 2.70%; the “weight change (hygroscopicity) After 2 weeks” value was 2.84%; the “weight change (hygroscopicity) After 2 days” value amounted to 2.58%. Also, the “stability of crystal under high humidity conditions (change of powder X-ray diffraction chart)” value in data set [2] was “excellent stability”. In addition, the “stability of crystal under high temperature conditions (change of powder X-ray diffraction chart)” value in data set [3] is “excellent stability”. Further, the “stability of crystal against physical stress (powder X-ray diffraction before and after grinding)” value in data set [4] is reported as “excellent stability”.

As for `COc1cc2nccc(Oc3ccc(NC(=O)Nc4cc(C)on4)c(Cl)c3)c2cc1OC.O=C(O)/C=C\C(=O)O` [Form I crystal of maleate, N-{2-chloro-4-[(6,7-dimethoxy-4-quinolyl)oxy]phenyl}-N′-(5-methyl-3-isoxazolyl)urea maleate], in data set [1] (maleate), the “hygroscopicity (level, in words)” value was “low level of hygroscopicity; also recorded: on a low level”; the “weight change (hygroscopicity) After 1 week” value was 0.41%; the “weight change (hygroscopicity) After 2 weeks” value is given as 0.53%; the “weight change (hygroscopicity) After 2 days” value worked out at 0.46%. Besides, the “stability of crystal under high humidity conditions (change of powder X-ray diffraction chart)” value in data set [2] is “excellent stability”. In addition, the “stability of crystal under high temperature conditions (change of powder X-ray diffraction chart)” value in data set [3] is recorded as “excellent stability”. In addition, the “stability of crystal against physical stress (powder X-ray diffraction before and after grinding)” value in data set [4] (maleate) is on record as “lowering in peak intensity”.

Take `COc1cc2nccc(Oc3ccc(NC(=O)Nc4cc(C)on4)c(Cl)c3)c2cc1OC.Cc1ccc(S(=O)(=O)O)cc1` [Form I crystal of p-toluenesulfonate, N-{2-chloro-4-[(6,7-dimethoxy-4-quinolyl)oxy]phenyl}-N′-(5-methyl-3-isoxazolyl)urea p-toluenesulfonate]: in data set [1] (p-toluenesulfonate), the “hygroscopicity (level, in words)” value is “low level of hygroscopicity; also recorded: on a low level”; the “weight change (hygroscopicity) After 1 week” value is reported as 0.24%; the “weight change (hygroscopicity) After 2 weeks” value turned out to be 0.25%; the “weight change (hygroscopicity) After 2 days” value is listed as 0.29%. Moreover, in data set [2], the “stability of crystal under high humidity conditions (change of powder X-ray diffraction chart)” value is recorded as “excellent stability”. Besides, the “stability of crystal under high temperature conditions (change of powder X-ray diffraction chart)” value in data set [3] is “excellent stability”. The “stability of crystal against physical stress (powder X-ray diffraction before and after grinding)” value in data set [4] is listed as “excellent stability”.

With `COc1cc2nccc(Oc3ccc(NC(=O)Nc4cc(C)on4)c(Cl)c3)c2cc1OC.O=[N+]([O-])O` [Form I crystal of nitrate, N-{2-chloro-4-[(6,7-dimethoxy-4-quinolyl)oxy]phenyl}-N′-(5-methyl-3-isoxazolyl)urea nitrate], in data set [1], the “hygroscopicity (level, in words)” value was “highly hygroscopic”; the “weight change (hygroscopicity) After 1 week” value came to 2.22%; the “weight change (hygroscopicity) After 2 weeks” value came out at 2.22%; the “weight change (hygroscopicity) After 2 days” value is recorded as 2.04%. For the same compound, in data set [2], the “stability of crystal under high humidity conditions (change of powder X-ray diffraction chart)” value is on record as “excellent stability”. Further, the “stability of crystal under high temperature conditions (change of powder X-ray diffraction chart)” value in data set [3] is “excellent stability”. For the same compound, in data set [4], the “stability of crystal against physical stress (powder X-ray diffraction before and after grinding)” value is listed as “excellent stability”.

`COc1cc2nccc(Oc3ccc(NC(=O)Nc4cc(C)on4)c(Cl)c3)c2cc1OC.O=S(=O)(O)O` [Form I crystal of sulfate, N-{2-chloro-4-[(6,7-dimethoxy-4-quinolyl)oxy]phenyl}-N′-(5-methyl-3-isoxazolyl)urea sulfate]: in data set [1], the “hygroscopicity (level, in words)” value is “highly hygroscopic”; the “weight change (hygroscopicity) After 1 week” value came to 4.21%; the “weight change (hygroscopicity) After 2 weeks” value is listed as 4.25%; the “weight change (hygroscopicity) After 2 days” value stood at 4.20%. For the same compound, the “stability of crystal under high humidity conditions (change of powder X-ray diffraction chart)” value in data set [2] (sulfate) was “converted to a mixture of form I crystal and a novel crystalline form”. Moreover, in data set [3] (listed as form I crystal of sulfate, sulfate), the “stability of crystal under high temperature conditions (change of powder X-ray diffraction chart)” value is recorded as “excellent stability”. Moreover, the “stability of crystal against physical stress (powder X-ray diffraction before and after grinding)” value in data set [4] is “lowering in peak intensity”.

As for `COc1cc2nccc(Oc3ccc(NC(=O)Nc4cc(C)on4)c(Cl)c3)c2cc1OC.O=S(=O)(O)O` [Form II crystal of sulfate, N-{2-chloro-4-[(6,7-dimethoxy-4-quinolyl)oxy]phenyl}-N′-(5-methyl-3-isoxazolyl)urea sulfate], the “stability of crystal under high humidity conditions (change of powder X-ray diffraction chart)” value in data set [2] (listed as from II crystal of sulfate, sulfate) was “converted to a novel crystalline form”. In data set [3] (listed as form II crystal of sulfate, sulfate), the “stability of crystal under high temperature conditions (change of powder X-ray diffraction chart)” value is “converted to a novel crystalline form”.
